In one assay the target is T1, human His-PIM1 [2-313] (Homo sapiens, UniProt P11309).
T1 construct: purified human His-PIM1 [2-313] enzyme; His (N); purchased University of Dundee, Scotland; host or cells: baculovirus system
The experiment in a line: PIM1 in-vitro mobility shift assay (Caliper LC3000, FL-Ahx-Bad phosphorylation). The class given is biochemical. Particulars: 1.5 h; percent inhibition at 0.3 uM compound; read-out: PIM1 % I at 0.3 uM. The source says:
PIM1 In-Vitro Mobility Shift Assay
One may determine the activity of purified human His-PIM1 [2-313] enzyme in-vitro using a mobility shift assay on a Caliper LC3000 reader (Caliper, Mass.), which measures fluorescence of a phosphorylated and unphosphorylated FL-Ahx-Bad (FITC-(AHX)RSRHSSYPAGT-COOH, Primm 200606-00289, Primm Biotech, Mass.) and calculates a ratiometric value to determine percent turnover. One may express PIM1 (University of Dundee, Scotland) in baculovirus system with a typical yield of >85% purity.
(§1) One determines phosphorylation of the FL-Ahx-Bad in the presence and absence of the compound of interest. One preincubates 5 µl of Enzyme/Substrate/adenosine triphosphate (ATP) mix consisting of 2.4 nM PIM1, 3.6 uM FL-Ahx-Bad, and 240 uM ATP in 1.2× buffer with 2 ul of compound for 20 minutes at 25° C. One initiates reactions with 5 ul of Metal mix consisting of 24 mM MgCl2 in 1.2× buffer and incubated at 25° C. for 90 minutes and stops the reactions by addition of 5 ul of Stop mix consisting of 100 mM HEPES, 121 mM ethylenediamine tetraacetic acid, 0.8% Coatin Reagent 3 (Caliper, Mass.), and 0.01% Tween. One detects phosphorylated and unphosphorylated substrate by a Caliper LC3000 reader (Caliper, Mass.) in the presence of separation buffer consisting of 100 mM HEPES, 16 mM ethylenediamine tetraacetic acid, 0.1% Coatin Reagent 3 (Caliper, Mass.), 0.015% Brij-35, 5% DMSO, and 5.6 mM MgCl2. One may use the following separation conditions for a Caliper LC3000: −1.0 PSI, −2000 V upstream voltage, −400 V downstream voltage, 0.2 second sample sip, 45 second post sip, 10% laser strength.
The table 1 below provides the percent inhibition of PIM1 at 0.3 micromolar for Examples provided herein. Several examples were tested more than once. Variations in the experimental outcomes, negative values, or values over 100% inhibition are presumably due to experimental error inherent in the assay.

The target in another assay is T2, human His-PIM2 [23-299] (Homo sapiens, UniProt Q9P1W9).
T2 construct: purified human His-PIM2 [23-299] enzyme; His (N); host or cells: E. coli
Put plainly: PIM2 in-vitro mobility shift assay (Caliper LC3000, FL-Ahx-Bad phosphorylation). The class given is biochemical. Conditions: 1.5 h; percent inhibition at 0.3 uM compound; read-out: PIM2 % I at 0.3 uM.
Text: PIM2 In-Vitro Mobility Shift Assay
One may determine the activity of purified human His-PIM2 [23-299] enzyme in-vitro using a mobility shift assay on a Caliper LC3000 reader (Caliper, Mass.), which measures fluorescence of a phosphorylated and unphosphorylated FL-Ahx-Bad (FITC-(AHX)RSRHSSYPAGT-COOH, Primm 200606-00289, Primm Biotech, Mass.) and calculates a ratiometric value to determine percent turnover. One may express PIM2 (produced at AstraZeneca, R&D Boston) in E. coli cells with a typical yield of >90% purity.
as §1, with “5 uL” for “5 µl”, “and 12” for “and 240”, “5 uL” for “5 ul”, “and incubates” for “and incubated”, “90 minutes. One” for “90 minutes and”, “stops” for “stops the”

Where a name gives a salt, the structure may show the parent alone.

T2 sequence (Q9P1W9 23-299): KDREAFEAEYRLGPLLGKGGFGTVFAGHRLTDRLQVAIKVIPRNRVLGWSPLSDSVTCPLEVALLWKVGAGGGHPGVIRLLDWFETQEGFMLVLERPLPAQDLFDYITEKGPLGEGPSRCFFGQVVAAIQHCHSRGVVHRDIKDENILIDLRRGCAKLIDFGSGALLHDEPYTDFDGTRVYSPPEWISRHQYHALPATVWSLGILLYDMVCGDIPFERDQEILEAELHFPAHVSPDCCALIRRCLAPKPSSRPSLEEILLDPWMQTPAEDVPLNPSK
T1 sequence (P11309 2-313): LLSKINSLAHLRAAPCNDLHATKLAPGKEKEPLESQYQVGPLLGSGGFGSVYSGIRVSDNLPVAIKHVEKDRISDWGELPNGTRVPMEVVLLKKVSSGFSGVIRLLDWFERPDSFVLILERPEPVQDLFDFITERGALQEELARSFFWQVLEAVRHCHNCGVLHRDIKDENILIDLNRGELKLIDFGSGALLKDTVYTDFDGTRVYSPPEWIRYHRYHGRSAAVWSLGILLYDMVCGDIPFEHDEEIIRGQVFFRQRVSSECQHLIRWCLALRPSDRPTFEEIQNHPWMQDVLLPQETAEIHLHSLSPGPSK

With `COc1cc(/C=C2\SC(=O)NC2=O)c(N2CC[C@@H](NCCCN)C2)cc1OC` [Example 122A, (R,Z)-5-(2-(3-(3-aminopropylamino)pyrrolidin-1-yl)-4,5-dimethoxybenzylidene)thiazolidine-2,4-dione hydrochloride], the inhibition at 0.3 µM was found to be 88.2% at human His-PIM1 [2-313] and 55% on human His-PIM2 [23-299].
Regarding `NCCC(=O)N1CCN(c2ccccc2/C=C2\SC(=O)NC2=O)CC1` [Example 129A], the inhibition at 0.3 µM at human His-PIM1 [2-313] and on human His-PIM2 [23-299] was over 95% in each case.
For the compound `CC(C)Oc1cccc(/C=C2\SC(=O)NC2=O)c1N1CCC[C@@H](N)C1` [Example 122O, (R,Z)-5-(2-(3-aminopiperidin-1-yl)-3-isopropoxybenzylidene)thiazolidine-2,4-dione hydrochloride], the inhibition at 0.3 µM on human His-PIM1 [2-313] and at human His-PIM2 [23-299] was over 95% throughout.
Take `NCCC(=O)N1CCN(c2ccc(C(F)(F)F)cc2/C=C2\SC(=O)NC2=O)CC1` [Example 93, (Z)-5-(2-(4-(3-aminopropanoyl)piperazin-1-yl)-5-(trifluoromethyl)benzylidene)thiazolidine-2,4-dione hydrochloride]: the inhibition at 0.3 µM on human His-PIM1 [2-313] was over 95%; on human His-PIM2 [23-299] it was 66.3%.
For the compound `N[C@@H]1CCCN(c2ccc(C(=O)O)cc2/C=C2\SC(=O)NC2=O)C1` [Example 122AG, (R,Z)-4-(3-aminopiperidin-1-yl)-3-((2,4-dioxothiazolidin-5-ylidene)methyl)benzoic acid hydrochloride], the results for the inhibition at 0.3 µM at human His-PIM1 [2-313] and at human His-PIM2 [23-299] were 68.9% and 86.7%, respectively.
On the same counts, the results for `CN(C)[C@H]1CCN(c2ccc(Cl)cc2C=C2SC(=O)NC2=O)C1` [Example 84I, (S)-5-(5-chloro-2-(3-(dimethylamino)pyrrolidin-1-yl)benzylidene)thiazolidine-2,4-dione] are over 95% and 82.7%.
With `NCCN1CCN(c2ccccc2/C=C2\SC(=O)NC2=O)CC1` [Example 112, (Z)-5-(2-(4-(2-aminoethyl)piperazin-1-yl)benzylidene)thiazolidine-2,4-dione hydrochloride], the inhibition at 0.3 µM at human His-PIM1 [2-313] and at human His-PIM2 [23-299] was over 95% in each case.
Regarding `CNC1CN(c2c(Cl)cccc2/C=C2\SC(=O)NC2=O)CCC1C` (centres unmarked) [Example 122U, (Z)-5-(3-chloro-2-(4-methyl-3-(methylamino)piperidin-1-yl)benzylidene)thiazolidine-2,4-dione hydrochloride], the inhibition at 0.3 µM on human His-PIM1 [2-313] and on human His-PIM2 [23-299] was over 95% throughout.
As for `Cc1noc(C2CCCN(c3c(Cl)cc(C(F)(F)F)cc3/C=C3\SC(=O)NC3=O)C2)n1` (centres unmarked) [Example 16], the inhibition at 0.3 µM was 13.9% on human His-PIM1 [2-313] and under 5% at human His-PIM2 [23-299].
The like results for `O=C1NC(=O)/C(=C/c2ccccc2N2CCN(C(=O)C3CCNCC3)CC2)S1` [Example 91, (Z)-5-(2-(4-(piperidine-4-carbonyl)piperazin-1-yl)benzylidene)thiazolidine-2,4-dione] were, in that order, 6.6% and 16.4%.
On the same counts, the results for `Cn1cc(C(=O)N[C@H]2CCN(c3c(Cl)cccc3/C=C3\SC(=O)NC3=O)C2)cn1` [Example 141] are 34.9% and under 5%.
The like results for `COc1cc(/C=C2\SC(=O)NC2=O)c(N2CCC(N(C)C)CC2)cc1OC` [Example 54, (5Z)-5-{2-(4-(dimethylamino)piperidin-1-yl)-4,5-dimethoxybenzylidene}-thiazolidine-2,4-dione] were, in that order, 88.1% and 73.1%.
With `COc1ccc(OCCN2CCOCC2)c(/C=C2\SC(=O)NC2=O)c1` [Example 62, (Z)-5-(5-methoxy-2-(2-morpholinoethoxy)benzylidene)thiazolidine-2,4-dione], the inhibition at 0.3 µM stood at 62.1% on human His-PIM1 [2-313] and 17.5% on human His-PIM2 [23-299].
On the same counts, the results for `CC(C)N1CCN(c2ccccc2/C=C2\SC(=O)NC2=O)CC1` [Example 50, (5Z)-5-[2-(4-isopropylpiperazin-1-yl)benzylidene]-1,3-thiazolidine-2,4-dione] are 93.7% and 45.4%.
On to `N[C@@H]1CCCN(c2c(/C=C3\SC(=O)NC3=O)cccc2OCC2CCCCC2)C1` [Example 122K, (R,Z)-5-(2-(3-aminopiperidin-1-yl)-3-(cyclohexylmethoxy)benzylidene)thiazolidine-2,4-dione hydrochloride], for which the inhibition at 0.3 µM at human His-PIM1 [2-313] and on human His-PIM2 [23-299] was over 95% in each case.
`N[C@@H]1CCCN(c2c(/C=C3\SC(=O)NC3=O)cccc2OC2CCCCC2)C1` [Example 122L, hydrochloride]: the inhibition at 0.3 µM on human His-PIM1 [2-313] and at human His-PIM2 [23-299] was over 95% each time.
In the case of `CN(C)CC(=O)N[C@H]1CCN(c2c(Cl)cccc2/C=C2\SC(=O)NC2=O)C1` [Example 145], the figures for the inhibition at 0.3 µM on human His-PIM1 [2-313] and at human His-PIM2 [23-299] were over 95% and 80.1%, respectively.
The like results for `Cc1ccc(C=C2SC(=O)NC2=O)c(N2CC[C@H](N(C)C)C2)c1` [Example 84J, (S)-5-(2-(3-(dimethylamino)pyrrolidin-1-yl)-4-methylbenzylidene)thiazolidine-2,4-dione] were, in that order, 93.3% and 40.4%.
As to `COc1cc(/C=C2\SC(=O)NC2=O)c(N2CCN(C(C)C)CC2)cc1OC` [Example 53, (5Z)-5-{2-(4-isopropylpiperazin-1-yl)-4,5-dimethoxybenzylidene}-thiazolidine-2,4-dione], the inhibition at 0.3 µM is 92.3% on human His-PIM1 [2-313] and 82.1% at human His-PIM2 [23-299].
On the same counts, the results for `CN(C)CCCN(C)c1c(Cl)cc(C(F)(F)F)cc1/C=C1\SC(=O)NC1=O` [Example 25] are over 95% and 68.4%.
On the same counts, the results for `N[C@@H]1CCCN(c2c(Cl)cc(C(F)(F)F)cc2/C=C2\SC(=O)NC2=O)C1` [Example 2] are over 95% and over 95%.
On the same counts, the results for `COc1cc(/C=C2\SC(=O)NC2=O)c(N2CCC(O)CC2)cc1OC` [Example 42, (5Z)-5-[2-(4-hydroxypiperidine-1-yl)-4,5-dimethoxybenzylidene]-1,3-thiazolidine-2,4-dione] are 58.8% and 23.3%.
For `O=C1NC(=O)/C(=C/c2cc(C(F)(F)F)cc(Cl)c2N2CCN(CCCO)CC2)S1` [Example 23], the figures for the inhibition at 0.3 µM on human His-PIM1 [2-313] and on human His-PIM2 [23-299] were 87.6% and 19.7%, respectively.
As for `O=C1NC(=O)/C(=C/c2cc(C(F)(F)F)cc(Cl)c2N2CCN(CCO)CC2)S1` [Example 28], the inhibition at 0.3 µM is 90% at human His-PIM1 [2-313] and 27.4% at human His-PIM2 [23-299].
Take `CNCCN[C@@H]1CCCN(c2c(Cl)cccc2/C=C2\SC(=O)NC2=O)C1` [Example 122S, (R,Z)-5-(3-chloro-2-(3-(2-(methylamino)ethylamino)piperidin-1-yl)benzylidene)thiazolidine-2,4-dione hydrochloride]: the inhibition at 0.3 µM at human His-PIM1 [2-313] and at human His-PIM2 [23-299] was over 95% each time.
